Values joined by “and” are separate entries in the source; they are usually repeats but may differ in a detail not shown here. Equal entries are not always repeated. Where two headings read alike, the source gives them in different places. Marks after values point to notes of the source that are not given here.
Experiment: Pharmacokinetics of regorafenib in plasma of freely moving rats with or without RT (HPLC-UV)
Type: in vivo, Sprague-Dawley rats
Conditions: for MRT / Tmax / half-life: plasma, po, 16 mg/kg; for half-life: read-out: t½
Protocol: The Institutional Animal Experimentation Committee of National Yang-Ming University, Taipei, Taiwan, and the Institutional Animal Care and Use Committee (IACUC, approval number 1070523) reviewed and approved the protocol. The Laboratory Animal Center at National Yang-Ming University (Taipei, Taiwan) provided adult male Sprague-Dawley rats (300 ± 20 g body weight). A pathogen-free environment with a 12 h light–dark cycle, with access to water ad libitum and food (laboratory rodent diet 5P14, PMI Feeds, Richmond, IN, USA), was provided for the animals.
A freely moving rat model was designed for the current study. The rats were anaesthetized and immobilized on a board, while undergoing computed tomography for localization of the whole liver or a central area 1.5 cm × 1.5 cm in size for the SBRT technique. For the whole liver field, the cranial margin was set 5 mm from the top of the diaphragm, and the caudal margin was set 5 mm lower than the liver margin. The whole liver was targeted for irradiation. The experimental animals were randomized to groups receiving sham RT, one or three fractions of RT2 Gy and RT9 Gy with current or sequential regorafenib. Data were collected from six rats in each group.
According to the formula used to translate doses from animal to human, human equivalent dose (HED, mg/kg) = animal dose (mg/kg) × animal km/human km, we calculated the daily dose of regorafenib for rats to be 16 (mg/kg/day). The rats were randomly divided into ten groups with six rats in each group. The concurrent groups treated with regorafenib 1 h after RT, in the same day, to mimic regorafenib concurrent with RT in the daily practice. The sequential groups treated with regorafenib following RT (not in the same day), to mimic RT followed by regorafenib in the daily practice. The one fraction study group included (A) a sham group, regorafenib with RT0 Gy (regorafenib × 1 d); concurrent groups treated with regorafenib 1 h after (B) RT2 Gy with 1 fraction (RT2 Gy × 1 f’x) and (D) RT9 Gy with 1 fraction (RT9 Gy × 1 f’x); and sequential groups treated with regorafenib 24 h after (C) RT2 Gy × 1 f’x and (E) RT9 Gy × 1 f’x. Continued treatment mimicking clinical practice was applied to (A) a sham group, regorafenib (p.o. (per os), q.d. × 3 d) with RT0 Gy (regorafenib × 3 d); concurrent groups treated with regorafenib (p.o., q.d. × 3 d) 1 h after (B) RT2 Gy with 3 fractions (RT2 Gy × 3 f’x) and (D) RT9 Gy with 3 fractions (RT9Gy × 3 f’x); and sequential groups treated with regorafenib 24 h (p.o., q.d. × 3 d) after (C) RT2 Gy × 3 f’x and (E) RT9 Gy × 3 f’x. (Figure 1A,B).
A 150 µL blood sample was withdrawn from the jugular vein with a fraction collector at 0.25, 0.5, 0.75, 1, 1.5, 2, 2.5, 3, 3.5 and 4 h, following drug administration. The samples were centrifuged for 10 min, at 4200× g. Then, 50 µL of the resulting plasma was vortexed with 1 mL of ethyl acetate and centrifuged at 5900× g. The upper layer was transferred to a new tube and evaporated to dryness.
The HPLC system included chromatographic pumps (LC-20AT; Shimadzu Co., Kyoto, Japan), an autosampler (SIL-20AC; Shimadzu Co., Kyoto, Japan) and a UV–Vis detector (SPDM20A; Shimadzu Co., Kyoto, Japan). A Waters Acquity C^18 column (50 × 2.1 mm, particle size 1.7 μm, Eclipse XDB, Agilent, Palo Alto, CA, USA) was used for sample analysis. The mobile phase consisted of potassium dihydrogen phosphate (10 mM, pH = 3) and acetonitrile (55:45, v/v). The flow rate was set to 0.2 mL/min, and the injection volume was 5 μL. The temperature in the autosampler was set to 40 °C. The UV–Vis detector scanned from 190 to 300 nm, and the chromatographic profiles were monitored at 265 nm for regorafenib and diethylstilbestrol (internal standard (IS)).
The process for sample extraction was as follows: 50 μL of rat plasma was mixed with internal standard (10 μL, IS, diethylstilbestrol) solution and methanol (140 μL) for protein precipitation. […]

[1] = male, Sprague-Dawley, rat, rat plasma, 16 mg/kg p.o. × 1 d, no RT
[2] = male, Sprague-Dawley, rat, rat plasma, 16 mg/kg p.o. × 3 d, no RT
[3] = male, Sprague-Dawley, rat, rat plasma, RT2 Gy × 1 f'x followed by regorafenib 16 mg/kg p.o. × 1 d (sequential)
[4] = male, Sprague-Dawley, rat, rat plasma, RT2 Gy × 1 f'x with regorafenib 16 mg/kg p.o. × 1 d (concurrent)
[5] = male, Sprague-Dawley, rat, rat plasma, RT2 Gy × 3 f'x followed by regorafenib 16 mg/kg p.o. × 3 d (sequential)
[6] = male, Sprague-Dawley, rat, rat plasma, RT2 Gy × 3 f'x with regorafenib 16 mg/kg p.o. × 3 d (concurrent)
[7] = male, Sprague-Dawley, rat, rat plasma, RT9 Gy × 1 f'x followed by regorafenib 16 mg/kg p.o. × 1 d (sequential)
[8] = male, Sprague-Dawley, rat, rat plasma, RT9 Gy × 1 f'x with regorafenib 16 mg/kg p.o. × 1 d (concurrent)
[9] = male, Sprague-Dawley, rat, rat plasma, RT9 Gy × 3 f'x followed by regorafenib 16 mg/kg p.o. × 3 d (sequential)
[10] = male, Sprague-Dawley, rat, rat plasma, RT9 Gy × 3 f'x with regorafenib 16 mg/kg p.o. × 3 d (concurrent)
[11] = rat plasma, 16 mg/kg p.o. × 1 d, no RT
[12] = rat plasma, 16 mg/kg p.o. × 3 d, no RT
[13] = rat plasma, RT2 Gy × 1 f'x followed by regorafenib 16 mg/kg p.o. × 1 d (sequential)
[14] = rat plasma, RT2 Gy × 1 f'x with regorafenib 16 mg/kg p.o. × 1 d (concurrent)
[15] = rat plasma, RT2 Gy × 3 f'x followed by regorafenib 16 mg/kg p.o. × 3 d (sequential)
[16] = rat plasma, RT2 Gy × 3 f'x with regorafenib 16 mg/kg p.o. × 3 d (concurrent)
[17] = rat plasma, RT9 Gy × 1 f'x followed by regorafenib 16 mg/kg p.o. × 1 d (sequential)
[18] = rat plasma, RT9 Gy × 1 f'x with regorafenib 16 mg/kg p.o. × 1 d (concurrent)
[19] = rat plasma, RT9 Gy × 3 f'x followed by regorafenib 16 mg/kg p.o. × 3 d (sequential)
[20] = rat plasma, RT9 Gy × 3 f'x with regorafenib 16 mg/kg p.o. × 3 d (concurrent)

Decrease of plasma AUCregorafenib (concurrent RT2 Gy × 1 f'x vs sham RT (regorafenib × 1 d), rat): 33.0% | Decrease of plasma AUCregorafenib (concurrent RT2 Gy × 3 f'x vs regorafenib × 3 d, rat): 74% | Decrease of plasma AUCregorafenib (concurrent RT9 Gy × 3 f'x vs regorafenib × 3 d, rat): 69% and 69.4% | concentration at 180 min (male, Sprague-Dawley, oral, rat plasma collected 180 min after regorafenib 16 mg/kg p.o. alone): 1500 ng/mL | MRT [1]: 24.7 h | Tmax [1]: 3.17 h | half-life [1]: 15.7 ± 8.92 h | MRT [2]: 13.7 h | Tmax [2]: 1.5 h | half-life [2]: 9.17 ± 2.43 h | MRT [3]: 9.22 h | Tmax [3]: 3 h | half-life [3]: 5.77 ± 1.55 h | MRT [4]: 10.8 h | Tmax [4]: 2.75 h | half-life [4]: 6.82 ± 2.5 h | MRT [5]: 22.8 h | Tmax [5]: 1.67 h | half-life [5]: 15.3 ± 15.9 h | MRT [6]: 9.73 h | Tmax [6]: 2.08 h | half-life [6]: 6.2 ± 2.53 h | MRT [7]: 15.6 h | Tmax [7]: 2.58 h | half-life [7]: 10.1 ± 3.5 h | MRT [8]: 16.3 h | Tmax [8]: 2.58 h | half-life [8]: 10.9 ± 7.42 h | MRT [9]: 14.3 h | Tmax [9]: 1.83 h | half-life [9]: 9.52 ± 5.38 h | MRT [10]: 16.4 h | Tmax [10]: 1.63 h | half-life [10]: 11 ± 9.97 h | Decrease of regorafenib levels (AUC) by a single fraction of RT, concurrent regimen (off-target or SBRT dose, × 1 f'x, concurrent, rat): ~35% | AUCregorafenib, sequential RT2 Gy × 3 f'x relative to concurrent RT2 Gy × 3 f'x (rat plasma): 2.0 fold | Cl [11]: 8.18 ± 3.06 mL/min/kg | Vss [11]: 12641.9 ± 6928.9 mL/kg | Cl [12]: 4.21 ± 1.82 mL/min/kg | Vss [12]: 3604.5 ± 951.1 mL/kg | Cl [13]: 6.19 ± 0.35 mL/min/kg | Vss [13]: 3081.4 ± 773.1 mL/kg | Cl [14]: 16.6 ± 7.21 mL/min/kg | Vss [14]: 21606.9 ± 20731.8 mL/kg | Cl [15]: 8.56 ± 7.21 mL/min/kg | Vss [15]: 4156.0 ± 1959.9 mL/kg | Cl [16]: 23.20 ± 9.45 ^n mL/min/kg | Vss [16]: 12759.6 ± 8467.4 ^p mL/kg | Cl [17]: 3.3 ± 4.3 mL/min/kg | Vss [17]: 2898.8 ± 4123.7 mL/kg | Cl [18]: 34.6 ± 25.3 mL/min/kg | Vss [18]: 30999.0 ± 34618.0 mL/kg | Cl [19]: 11.4 ± 4.5 mL/min/kg | Vss [19]: 7960.3 ± 3023.5 ^r mL/kg | Cl [20]: 19.0 ± 11.7 ^o mL/min/kg | Vss [20]: 11564.4 ± 3361.0 ^q mL/kg | Increase of plasma AUCregorafenib (sequential RT2 Gy × 1 f'x vs regorafenib × 1 d, rat): 182.8% | Decrease of plasma AUCregorafenib (sequential RT2 Gy × 3 f'x vs regorafenib × 3 d, rat): 20.7% | Increase of plasma AUCregorafenib (sequential RT9 Gy × 1 f'x vs regorafenib × 1 d, rat): 213.2% | Decrease of plasma AUCregorafenib (sequential RT9 Gy × 3 f'x vs regorafenib × 3 d, rat): 45.8%
Structure (SMILES): CNC(=O)c1cc(Oc2ccc(NC(=O)Nc3ccc(Cl)c(C(F)(F)F)c3)c(F)c2)ccn1 [regorafenib, Regorafenib]

From article PMC8035703, “Effect of Synchronous Versus Sequential Regimens on the Pharmacokinetics and Biodistribution of Regorafenib with Irradiation” (Pharmaceutics, 2021)
